Here are results for nine compounds from patent US12280090B2, “Antimicrobial peptides” (priority 2018, dated 2025).

Common to all, as to format: cell-based
Test [1] deals with Streptococcus pyogenes: unknown strain, hospital isolate. As to the method:
(§1) Microtiter broth dilution assays. HP2, HP3, and HP5 peptides are comprised of novel sequences that have not yet been described in the AMP literature. A common method for establishing antimicrobial activity of peptides is to perform microtiter broth assays. Microtiter broth dilution methods were implemented for determination of the minimum inhibitory concentration (MIC) and minimum bactericidal concentration (MBC). HP3 and HP5 were tested in addition to Ranatuerin-1/HP4 peptide as a positive control. HP2 could not be tested because multiple peptide synthesis attempts failed. The human cathelicidin, LL-37^30 was used as an additional positive control, and an unrelated similarly sized cationic peptide from the T. pallidum protein Tp0751 was used as a negative control. The potential AMPs were tested against bacteria representative of all three types of known cell envelope (Gram-positive, negative, and the complex and unique mycobacterial cell wall/envelope), given that a major mechanism used by AMPs is cell wall/membrane targeting.
(§2) Microtiter broth dilution assays. To test for antimicrobial activity, HP3, HP4/Ranatuerin-1, and HP5, peptides were synthesized by GenScript (Piscataway, New Jersey, USA). HP2 was not tested because the service provider was unable to synthesize this peptide despite multiple attempts. An unrelated, similarly-sized peptide from the Treponema pallidum protein Tp0751^55 was used as a negative control and the human cathelicidin, LL-37^30, was included as a positive control. Peptides were dissolved in filter-sterilized ultrapure water and tested for sterility by plating on non-selective agar plates followed by a 48 h incubation at 37° C. Two-fold serial dilutions of each peptide were prepared to obtain a series corresponding to ten times the required testing concentrations (2560, 1280, 640, 320, 160, 80, 40, 20, 10, and 5 μg/mL)^29.
(§3) Microtiter broth dilution methods were implemented for determination of the minimum inhibitory concentration (MIC) and minimum bactericidal concentration (MBC) of the four putative AMPs and the negative control peptide using procedures adapted from the R.E.W. Hancock Laboratory for cationic AMPs^29 and the CLSI methods for dilution antimicrobial susceptibility tests^56.
(§4) To assess antimicrobial activity across a diverse range of bacterial species, colonies were cultured overnight on Mueller Hinton agar plates (MHA; +5% sheep blood for S. pyogenes)^56 from frozen glycerol stock. Bacteria tested include Gram-negative rods (Escherichia coli: ATCC 9723H; Pseudomonas aeruginosa: ATCC 10148), Gram-positive cocci (Staphylococcus aureus: ATCC 6538P; Streptococcus pyogenes: unknown strain, hospital isolate), and Mycobacterium smegmatis (MC^2155; classified as neither Gram-positive nor Gram-negative). Bacterial suspensions were prepared by placing 3-5 morphologically similar colonies from the grown plate into sterile glass culture tubes containing 2 mL of Mueller Hinton Broth (MHB; +5% lysed horse blood for S. pyogenes) 56. Microbial inoculums from bacterial suspensions were prepared through a spectrophotometric adjustment of turbidity to 0.08-0.1 at 600 nm to achieve a turbidity equivalent to that of a 0.5 McFarland standard (1-2×10^8 CFU/mL)^29. The standardized bacterial inoculums were then diluted in MHB to obtain final cell densities of approximately […].
(§5) Ninety-six-well microtiter plates (Fisher Cat. No. CS003790; Nepean, Ontario, Canada) were prepared with 100 μL of E. coli, P. aeruginosa, S. aureus, S. pyogenes, or M. smegmatis bacterial suspension (5×10^5 CFU/mL) dispensed into each well of columns 1 through 11. Eleven microliters of the 10×AMP dilution series for all four peptides were added to each well from column 1 (2560 μg/mL) to column 10 (5 μg/mL) in all plates. Column 11 functioned as a positive control for bacterial growth in the absence of AMPs. Column 12 in each plate contained 100 μL of MHB as a sterility control (+5% lysed horse blood for S. pyogenes)^56. […]

The subject of test [2] is Staphylococcus aureus: ATCC 6538P. The protocol:
as §1, §2, §3, §4, §5

Test [3] has as its system Pseudomonas aeruginosa: ATCC 10148. The protocol:
as §1, §2, §3, §4, §5

Test [4] has as its system Escherichia coli: ATCC 9723H. The protocol: as §1, §2, §3, §4, §5
Test [5] relates to Mycobacterium smegmatis (MC^2155). The protocol: as §1, §2, §3, §4, §5
[6] abbreviates: unknown strain, hospital isolate.

In brackets after ≈: the same amount, converted by molar mass. Read-outs that look alike come from different tables or passages of the source. Ends that are not written are not given here. Peptide text beside a SMILES is read from it.

As for `CC[C@H](C)[C@H](NC(=O)CNC(=O)[C@@H](NC(=O)[C@@H](NC(=O)[C@H](CCCCN)NC(=O)CNC(=O)[C@@H](NC(=O)[C@H](CC(=O)O)NC(=O)[C@H](CCCCN)NC(=O)[C@@H](NC(=O)[C@@H](NC(=O)[C@H](CC(=O)O)NC(=O)[C@H](CC(C)C)NC(=O)[C@H](CC(C)C)NC(=O)CN)[C@@H](C)CC)[C@@H](C)CC)[C@@H](C)O)[C@@H](C)O)[C@@H](C)O)C(=O)N[C@@H](CC(C)C)C(=O)N[C@@H](CCSC)C(=O)N[C@@H](CC(=O)O)C(=O)N[C@H](C(=O)N[C@@H](CC(C)C)C(=O)N[C@@H](CCCCN)C(=O)N[C@@H](CS)C(=O)N[C@@H](CCC(N)=O)C(=O)N[C@@H](CCSC)C(=O)N[C@H](C(=O)NCC(=O)N[C@@H](CCCNC(=N)N)C(=O)N[C@@H](CS)C(=O)N1CCC[C@H]1C(=O)N1CCC[C@H]1C(=O)N[C@@H](CO)C(=O)N[C@@H](CO)C(=O)O)[C@@H](C)O)[C@@H](C)O` [Peptide P3_CCH] (H-GLLDIIKDTGKTTGILMDTLKCQMTGRCPPSS-OH; N-terminus and C-terminus assumed), the MBC in test [1] (setting [6]), in test [2] (ATCC 6538), in test [3] (ATCC 10148), in test [4] (ATCC 9723) and in test [5] (Mycobacterium (MC^2155)) was more than 256 µg/mL throughout. In addition, the MIC in test [1] (setting [6]), in test [2] (ATCC 6538), in test [3] (ATCC 10148), in test [4] (ATCC 9723) and in test [5] (Mycobacterium (MC^2155)) was more than 256 µg/mL in each case.

Turning to `CC[C@H](C)[C@H](NC(=O)[C@H](C)NC(=O)[C@@H]1CCCN1C(=O)[C@@H](N)Cc1ccccc1)C(=O)N[C@H](C(=O)N[C@@H](CS)C(=O)N[C@@H](CCCCN)C(=O)N[C@H](C(=O)N[C@@H](CO)C(=O)N[C@@H](CCCCN)C(=O)N[C@@H](CC(N)=O)C(=O)N[C@@H](CS)C(=O)O)C(C)C)[C@@H](C)CC` [Peptide P8_CCH, FPAIICKVSKNC] (H-FPAIICKVSKNC-OH; N-terminus and C-terminus assumed), the MBC in test [1] (setting [6]), in test [2] (ATCC 6538), in test [3] (ATCC 10148) and in test [4] (ATCC 9723) was more than 256 µg/mL in each case. Moreover, the MIC was more than 256 µg/mL in test [1] (setting [6]); more than 256 µg/mL in test [2] (ATCC 6538); more than 256 µg/mL in test [3] (ATCC 10148); more than 256 µg/mL in test [4] (ATCC 9723); 128 µg/mL (≈ 96.8 µM) in test [5] (Mycobacterium (MC^2155)).

Regarding `CC[C@H](C)[C@H](N)C(=O)N[C@@H](CCC(N)=O)C(=O)N[C@@H](CCCNC(=N)N)C(=O)N[C@@H](CC(C)C)C(=O)N1CCC[C@H]1C(=O)N[C@H](C(=O)N[C@H](C(=O)N[C@H](C(=O)N[C@H](C(=O)N[C@@H](CC(C)C)C(=O)N1CCC[C@H]1C(=O)N[C@@H](CO)C(=O)N[C@@H](CC(C)C)C(=O)N[C@@H](Cc1ccc(O)cc1)C(=O)N[C@@H](CS)C(=O)N[C@H](C(=O)N[C@H](C(=O)N[C@@H](CS)C(=O)N[C@@H](CCCNC(=N)N)C(=O)N[C@H](C(=O)N[C@@H](CS)C(=O)O)[C@@H](C)O)[C@@H](C)CC)C(C)C)[C@@H](C)CC)C(C)C)[C@@H](C)CC)C(C)C` [Peptide P14_CCH] (H-IQRLPVIVILPSLYCVICRTC-OH; N-terminus and C-terminus assumed), the MBC in test [1] (setting [6]), in test [2] (ATCC 6538), in test [3] (ATCC 10148), in test [4] (ATCC 9723) and in test [5] (Mycobacterium (MC^2155)) was more than 256 µg/mL throughout. Besides, the MIC in test [1] (setting [6]), in test [2] (ATCC 6538), in test [3] (ATCC 10148), in test [4] (ATCC 9723) and in test [5] (Mycobacterium (MC^2155)) was more than 256 µg/mL throughout.

As to FLTKPGMTFGKLLGK [Peptide P9_CCH], the MBC in test [1] (setting [6]), in test [2] (ATCC 6538), in test [3] (ATCC 10148), in test [4] (ATCC 9723) and in test [5] (Mycobacterium (MC^2155)) was more than 256 µg/mL throughout. Also, the MIC in test [1] (setting [6]), in test [2] (ATCC 6538), in test [3] (ATCC 10148), in test [4] (ATCC 9723) and in test [5] (Mycobacterium (MC^2155)) was more than 256 µg/mL throughout.

Regarding “FYFPVSRKFGGK [Peptide P1_CCH, FYFPVSRKFGGK]”, the MBC in test [1] (S. pyogenes (Table 5)), in test [2] (S. aureus (Table 5)), in test [3] (P. aeruginosa (Table 5)), in test [4] (E. coli (Table 5)) and in test [5] (M. smegmatis (Table 5)) was more than 256 µg/mL each time. Further, the MIC in test [1] (setting [6]), in test [2] (ATCC 6538), in test [3] (ATCC 10148) and in test [4] (ATCC 9723) was more than 256 µg/mL in each case.

As to “IAGQVAAAKQKHI [Peptide P12_CCH, IAGQVAAAKQKHI]”, the MBC in test [1] (setting [6]), in test [2] (ATCC 6538), in test [3] (ATCC 10148), in test [4] (ATCC 9723) and in test [5] (Mycobacterium (MC^2155)) was more than 256 µg/mL throughout. The MIC in test [1] (setting [6]), in test [2] (ATCC 6538), in test [3] (ATCC 10148), in test [4] (ATCC 9723) and in test [5] (Mycobacterium (MC^2155)) was more than 256 µg/mL each time.

Turning to “LRCPTPHYNFENGIGNHLMWNIIWLNAQQMSYKNK [Peptide P15_CCH]”, the MBC in test [1] (setting [6]), in test [2] (ATCC 6538), in test [3] (ATCC 10148), in test [4] (ATCC 9723) and in test [5] (Mycobacterium (MC^2155)) was more than 256 µg/mL throughout. Moreover, the MIC in test [1] (setting [6]), in test [2] (ATCC 6538), in test [3] (ATCC 10148), in test [4] (ATCC 9723) and in test [5] (Mycobacterium (MC^2155)) was more than 256 µg/mL in each case.

“SNRDFFKVNIFRLCG [Peptide P10_CCH, SNRDFFKVNIFRLCG]”: the MBC in test [1] (setting [6]), in test [2] (ATCC 6538), in test [3] (ATCC 10148), in test [4] (ATCC 9723) and in test [5] (Mycobacterium (MC^2155)) was more than 256 µg/mL each time. In addition, the MIC in test [1] (setting [6]), in test [2] (ATCC 6538), in test [3] (ATCC 10148), in test [4] (ATCC 9723) and in test [5] (Mycobacterium (MC^2155)) was more than 256 µg/mL throughout.

As to “SNRDFFMVNIFGLCGPFGIMERKRR [Peptide P16_CCH]”, the MIC in test [1] (setting [6]), in test [2] (ATCC 6538), in test [3] (ATCC 10148), in test [4] (ATCC 9723) and in test [5] (Mycobacterium (MC^2155)) was more than 256 µg/mL each time.

Broadly, the MBC is the smallest concentration meeting the test's criterion for killing. Higher therefore signals weaker bactericidal potency. The term MIC denotes the lowest concentration that inhibits growth of the organism. Higher therefore signals a need for much substance.
